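96-well plates; 48 h exposure; 5 concentrations. Endpoints by linear interpolation between flanking doses. Not reached: highest tested concentration assigned. GI50 = concentration required for 50% inhibition of growth.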 Active and inactive are the calls of the source. Rule as the data show it: active = GI50 up to about 1.1 µM and inactive = higher.
Experiments:
Test in all cases: DTP human tumour cell line panel, 48 h
[1] = system: M19-MEL
[2] = system: NCI-H460
[3] = system: UACC-257
[4] = system: 786-0
[5] = system: HOP-18
[6] = system: SK-OV-3
[7] = system: RPMI-8226
[8] = system: SF-539
[9] = system: OVCAR-5
[10] = system: SF-268
[11] = system: MOLT-4
[12] = system: SK-MEL-2
[13] = system: HT-29
[14] = system: HOP-62
[15] = system: HCC 2998
[16] = system: UACC-62
[17] = system: HOP-92
[18] = system: Malme-3M
[19] = system: DLD-1
[20] = system: IGROV-1
[21] = system: SR
[22] = system: SN12C
[23] = system: SW-620
[24] = system: U-251
[25] = system: OVCAR-3
[26] = system: CCRF-CEM
[27] = system: RXF 393
[28] = system: NCI-H226
[29] = system: LXFL 529
[30] = system: SF-295
[31] = system: EKVX
[32] = system: UO-31
[33] = system: A549
[34] = system: HL-60
[35] = system: HCT-116
[36] = system: SNB-78
[37] = system: XF498
[38] = system: ACHN
[39] = system: SNB-19
[40] = system: SK-MEL-28
[41] = system: TK-10
[42] = system: COLO 205
[43] = system: NCI-H23
[44] = system: RXF 631
[45] = system: DMS-273
[46] = system: OVCAR-8
[47] = system: SNB-75
[48] = system: LOX IMVI
[49] = system: HCT-15
[50] = system: OVCAR-4
[51] = system: CAKI-1
[52] = system: DMS-114
[53] = system: SK-MEL-5
[54] = system: M14
[55] = system: KM-20L2
[56] = system: NCI-H522
[57] = system: K562
[58] = system: KM12
[59] = system: A498

Measured: GI50

CC(=O)C1(O)CCC2(O)C3(O)CC=C4CC(O)CCC4(C)C3CC(OC(=O)c3ccc(O)cc3)C12C.COC1CC(OC2C(C)OC(OC3C(C)OC(OC4CCC5(C)C(=CCC6(O)C5CC(OC(=O)c5ccc(O)cc5)C5(C)C(O)(C(C)=O)CCC65O)C4)CC3OC)CC2OC)OC(C)C1O (stereo not given)
33.6 µM: [49]
inactive: [1] 35.5 µM | [2] 34.2 µM | [3] 23.4 µM | [4] 23.7 µM | [5] 38.7 µM | [6] 36.7 µM | [7] 27.5 µM | [8] 24.5 µM | [9] 87.5 µM | [10] 30.6 µM | [11] 30.5 µM | [12] 20.4 µM | [13] 31.4 µM | [14] 31.6 µM | [15] 26.9 µM | [16] 23.4 µM | [17] 21.1 µM | [18] 25.1 µM | [19] 36.6 µM | [20] 34.2 µM | [21] 25.8 µM | [22] 31.3 µM | [23] 42.1 µM | [24] 22.5 µM | [25] 20.3 µM | [26] 32.4 µM | [27] 44.4 µM | [28] 34.4 µM | [29] 24.9 µM | [30] 36 µM | [31] 35.4 µM | [32] 18.3 µM | [33] 30.5 µM | [34] 20.7 µM | [35] 10 µM | [36] 20.6 µM | [37] 2.03 µM | [38] 30.1 µM | [39] 33.6 µM | [40] 29 µM | [41] 60.8 µM | [42] 26.9 µM | [43] 28.9 µM | [44] 76 µM | [45] 36.2 µM | [46] 29.9 µM | [47] 76.4 µM | [48] 20.5 µM

O=c1cccccc1NCCCCNc1cccccc1=O
84.7 µM: [49]
inactive: [1] 83.2 µM | [2] > 100 µM | [50] 50.8 µM | [51] 83 µM | [52] 31.3 µM | [3] > 100 µM | [4] > 100 µM | [5] > 100 µM | [6] > 100 µM | [7] 43.4 µM | [9] > 100 µM | [10] 41.4 µM | [11] 62.1 µM | [12] > 100 µM | [13] > 100 µM | [14] > 100 µM | [15] 85.3 µM | [16] 72.6 µM | [53] 30 µM | [54] 55.7 µM | [18] 29.4 µM | [19] 57.3 µM | [55] > 100 µM | [20] > 100 µM | [22] > 100 µM | [23] 67.6 µM | [24] > 100 µM | [25] > 100 µM | [26] > 100 µM | [56] 83.8 µM | [57] > 100 µM | [28] 73.6 µM | [29] 48.8 µM | [30] > 100 µM | [31] > 100 µM | [32] 42 µM | [33] 59.2 µM | [34] 49.7 µM | [35] > 100 µM | [36] > 100 µM | [58] > 100 µM | [59] > 100 µM | [38] 54.8 µM | [39] 61 µM | [40] 71.1 µM | [41] > 100 µM | [42] > 100 µM | [43] 67.8 µM | [44] > 100 µM | [45] > 100 µM | [46] > 100 µM | [47] > 100 µM | [48] > 100 µM

[O-][n+]1c2cc(CN3CCOCC3)c(CN3CCOCC3)cc2[n+]([O-])c2c(O)cccc21
inactive: [1] 2.9 µM | [50] 4.29 µM | [3] 6.24 µM | [4] 1.41 µM | [5] 3.55 µM | [6] 4.13 µM | [7] 3.32 µM | [9] 4.38 µM | [12] 5.56 µM | [13] 3.91 µM | [14] 3.75 µM | [16] 4.21 µM | [17] 2 µM | [54] 3.64 µM | [18] 8.73 µM | [19] 2.12 µM | [55] 5.93 µM | [20] 5 µM | [22] 2.87 µM | [23] 2.94 µM | [24] 3.25 µM | [25] 5.15 µM | [56] 1.88 µM | [57] 2.61 µM | [28] 8.65 µM | [29] 3.1 µM | [31] 6.53 µM | [32] 3.72 µM | [35] 1.81 µM | [36] 3.18 µM | [58] 4.4 µM | [59] 11 µM | [37] 1.83 µM | [38] 4.07 µM | [39] 9.44 µM | [40] 14 µM | [41] > 20.4 µM | [42] 5 µM | [43] 2.37 µM | [44] 16.1 µM | [45] 3.44 µM | [46] 2.48 µM | [47] 3.46 µM | [48] 4.02 µM
active: [2] 0.993 µM | [8] 1.08 µM | [10] 1.05 µM | [11] 0.627 µM | [21] 0.193 µM | [26] 0.427 µM | [27] 0.968 µM | [30] 0.478 µM | [34] 0.807 µM
3.44 µM: [49]

CC1C(=O)CCC1C(Sc1ccccc1)(Sc1ccccc1)Sc1ccccc1 (stereo not given)
30.3 µM: [49]
inactive: [1] 21.1 µM | [2] 41.4 µM | [50] 18.8 µM | [51] 16.9 µM | [52] 13.8 µM | [3] 31.5 µM | [4] 22.5 µM | [6] 80.2 µM | [7] 12.6 µM | [8] 18.7 µM | [9] > 100 µM | [10] 10.7 µM | [11] 4.73 µM | [12] 34.9 µM | [13] 30.3 µM | [14] 37.4 µM | [15] 20.8 µM | [16] 18 µM | [53] 16.9 µM | [17] 8.43 µM | [54] 25 µM | [18] 37.1 µM | [19] 28.8 µM | [20] 15.1 µM | [22] 21.1 µM | [23] 27 µM | [24] 33.8 µM | [25] 17.6 µM | [26] 3.48 µM | [27] 14.2 µM | [56] 11.1 µM | [57] 20.5 µM | [29] 17.1 µM | [30] 36.8 µM | [31] 55.6 µM | [32] 1.32 µM | [33] 9.27 µM | [34] 5.83 µM | [35] 16.1 µM | [36] 37.8 µM | [58] 24.7 µM | [59] 23.2 µM | [37] 24.7 µM | [38] 19.9 µM | [39] 26.5 µM | [40] 22.1 µM | [41] 47.9 µM | [42] 38.2 µM | [43] 22.5 µM | [44] 25.9 µM | [45] 23.3 µM | [46] 24.3 µM | [47] 17.1 µM | [48] 21 µM

CC(C)NC(=O)O/N=C1\CCC2[C@@H]3CC=C4C[C@@H](OC(=O)NC(C)C)CC[C@]4(C)C3CC[C@]12C (stereo not given in full)
active: [52] 0.664 µM | [3] 0.685 µM | [7] 0.695 µM | [9] 0.748 µM | [53] 0.425 µM | [54] 0.627 µM | [18] 0.31 µM | [25] 1.08 µM | [57] 0.953 µM | [29] 0.912 µM | [32] 1.01 µM | [34] 0.632 µM | [38] 0.971 µM | [42] 0.359 µM | [48] 1.03 µM
inactive: [1] 1.29 µM | [2] 1.38 µM | [50] 1.38 µM | [51] 1.44 µM | [4] 1.61 µM | [5] 1.84 µM | [6] 4.31 µM | [8] 2.4 µM | [10] 1.49 µM | [11] 1.42 µM | [12] 1.46 µM | [13] 2.34 µM | [14] 6.53 µM | [15] 2.14 µM | [16] 1.3 µM | [17] 2.08 µM | [19] 2.53 µM | [55] 2.59 µM | [20] 1.87 µM | [21] 1.2 µM | [22] 1.57 µM | [23] 1.79 µM | [24] 1.38 µM | [26] 1.24 µM | [27] 1.53 µM | [56] 1.53 µM | [28] 18.1 µM | [30] 1.54 µM | [31] 1.28 µM | [33] 1.47 µM | [35] 1.43 µM | [36] 2.29 µM | [58] 1.68 µM | [59] 6.89 µM | [39] 2.02 µM | [40] 1.59 µM | [41] 1.66 µM | [43] 1.18 µM | [44] 1.32 µM | [45] 1.31 µM | [46] 1.75 µM | [47] 1.87 µM
1.43 µM: [49]

From ChEMBL document CHEMBL1201862, “PubChem BioAssay data set” (2004)
